Measurements: patent US6908935B2, “Calcium receptor modulating agents” (Amgen Inc., priority 2002, dated 2005)

target: T1, human parathyroid cell Ca^2+ receptor (hPCaR) (Homo sapiens, UniProt P41180); assay: [Ca2+]i measurement with fluo-3 in HEK 293 4.0-7 cells stably transfected with hPCaR; format: cell-based; conditions: fluo-3 fluorescence (485/530 nm), effect on [Ca^2+]i
T1 construct: expressed in transfected cells
T1 sequence (P41180 20-1078): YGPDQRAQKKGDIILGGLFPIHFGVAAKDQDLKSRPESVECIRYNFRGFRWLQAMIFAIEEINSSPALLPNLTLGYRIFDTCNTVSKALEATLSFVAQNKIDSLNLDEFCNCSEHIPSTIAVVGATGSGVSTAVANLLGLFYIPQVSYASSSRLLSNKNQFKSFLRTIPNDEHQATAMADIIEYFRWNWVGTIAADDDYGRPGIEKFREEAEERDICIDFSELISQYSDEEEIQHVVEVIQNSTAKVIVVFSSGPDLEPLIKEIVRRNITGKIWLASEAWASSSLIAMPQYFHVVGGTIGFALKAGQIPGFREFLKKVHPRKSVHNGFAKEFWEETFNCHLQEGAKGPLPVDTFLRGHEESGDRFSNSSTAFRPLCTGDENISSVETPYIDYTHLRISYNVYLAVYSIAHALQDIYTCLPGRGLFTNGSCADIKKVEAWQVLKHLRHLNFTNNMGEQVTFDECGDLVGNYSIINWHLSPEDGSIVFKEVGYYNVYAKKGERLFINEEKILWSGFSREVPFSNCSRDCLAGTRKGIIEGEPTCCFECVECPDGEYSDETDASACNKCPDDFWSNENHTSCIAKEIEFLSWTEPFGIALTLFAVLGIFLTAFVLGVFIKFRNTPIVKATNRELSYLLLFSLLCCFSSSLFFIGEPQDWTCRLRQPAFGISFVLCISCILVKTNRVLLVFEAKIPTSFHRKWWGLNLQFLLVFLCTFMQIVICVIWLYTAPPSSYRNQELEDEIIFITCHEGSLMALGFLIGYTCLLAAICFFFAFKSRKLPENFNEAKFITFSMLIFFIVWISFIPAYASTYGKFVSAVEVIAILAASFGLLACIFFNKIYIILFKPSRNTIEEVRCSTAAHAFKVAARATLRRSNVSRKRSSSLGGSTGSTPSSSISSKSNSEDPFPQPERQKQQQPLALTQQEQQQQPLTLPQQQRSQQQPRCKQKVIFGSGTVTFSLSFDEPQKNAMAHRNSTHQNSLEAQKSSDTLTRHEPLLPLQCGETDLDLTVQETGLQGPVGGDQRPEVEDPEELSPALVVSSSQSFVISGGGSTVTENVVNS
In short: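 HEK 293 cells stably expressing human parathyroid Ca2+ receptor (clone 4.0-7), loaded with 2 μM fluo-3 AM for 30 min at 37 °C in parathyroid cell buffer (pH 7.45) with 1 mM CaCl2 and 0.5% BSA. After compound addition, intracellular Ca2+ followed by fluorescence at 485 nm excitation/530 nm emission.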

Row | EC50 | Structure (SMILES)
1 | ≤ 10 µM | COc1ccc(CN[C@H](C)c2ccccc2)cc1-c1cncnc1 [(1R)-N-((4-(methyloxy)-3-(5-pyrimidinyl)phenyl)methyl)-1-phenylethanamine]
2 | ≤ 10 µM | COc1ccc(CN[C@H](C)c2cccc3ccccc23)cc1-c1cn(C)cn1 [(1R)-N-((3-(1-methyl-1H-imidazol-4-yl)-4-(methyloxy)phenyl)methyl)-1-(1-naphthalenyl)ethanamine]
3 | ≤ 10 µM | COc1ccc([C@@H](C)NCc2ccc(OC)c(-c3cccnc3)c2)cc1 [(1R)-1-(4-(methyloxy)phenyl)-N-((4-(methyloxy)-3-(3-pyridinyl)phenyl)methyl)ethanamine]
4 | ≤ 10 µM | COc1cccc([C@@H](C)NCc2ccc(OC)c(-c3cccnc3)c2)c1 [(1R)-1-(3-(methyloxy)phenyl)-N-((4-(methyloxy)-3-(3-pyridinyl)phenyl)methyl)ethanamine]
5 | ≤ 10 µM | COc1ccc(CN[C@H](C)c2ccccc2)cc1-c1ccc(N(C)C)nc1 [N,N-dimethyl-5-(2-(methyloxy)-5-((((1R)-1-phenylethyl)amino)methyl)phenyl)-2-pyridinamine]
6 | ≤ 10 µM | COc1ccc(CN[C@H](C)c2ccccc2)cc1-c1ccc(=O)n(C)c1 [1-methyl-5-(2-(methyloxy)-5-((((1R)-1-phenylethyl)amino)methyl)phenyl)-2(1H)-pyridinone]
7 | ≤ 10 µM | COc1ccc(CN[C@H](C)c2ccccc2)cc1-c1csc2ccccc12 [(1R)-N-((3-(1-benzothien-3-yl)-4-(methyloxy)phenyl)methyl)-1-phenylethanamine]
8 | ≤ 10 µM | COc1ccc(CN[C@H](C)c2ccccc2)cc1-c1cccc(C(F)(F)F)c1 [(1R)-N-((6-(methyloxy)-3′-(trifluoromethyl)-1,1′-biphenyl-3-yl)methyl)-1-phenylethanamine]
9 | ≤ 10 µM | COc1ccc(CN[C@H](C)c2ccccc2)cc1-c1ccc2c(c1)CCO2 [(1R)-N-((3-(2,3-dihydro-1-benzofuran-5-yl)-4-(methyloxy)phenyl)methyl)-1-phenylethanamine]
10 | ≤ 10 µM | COc1ccc(-c2cc(CN[C@H](C)c3ccccc3)ccc2OC)nc1 [(1R)-N-((4-(methyloxy)-3-(5-(methyloxy)-2-pyridinyl)phenyl)methyl)-1-phenylethanamine]
11 | ≤ 10 µM | COc1ccc(CN[C@H](C)c2ccccc2)cc1-c1cccc(C#N)c1 [2′-(methyloxy)-5′-((((1R)-1-phenylethyl)amino)methyl)-1,1′-biphenyl-3-carbonitrile]
12 | ≤ 10 µM | COc1ccc(CN[C@H](C)c2ccccc2)cc1-c1coc(C)n1 [(1R)-N-((3-(2-methyl-1,3-oxazol-4-yl)-4-(methyloxy)phenyl)methyl)-1-phenylethanamine]
13 | ≤ 10 µM | COc1ccc([C@@H](C)NCc2ccc(OC)c(-c3ccsc3)c2)cc1 [(1R)-1-(4-(methyloxy)phenyl)-N-((4-(methyloxy)-3-(3-thienyl)phenyl)methyl)ethanamine]
14 | ≤ 10 µM | COc1ccc(-c2cccc(CN[C@H](C)c3ccccc3)c2)nn1 [(1R)-N-((3-(6-(methyloxy)-3-pyridazinyl)phenyl)methyl)-1-phenylethanamine]
15 | ≤ 10 µM | COc1ccc(CN[C@H](C)c2ccccc2)cc1-c1cccnc1N1CCOCC1 [(1R)-N-((4-(methyloxy)-3-(2-(4-morpholinyl)-3-pyridinyl)phenyl)methyl)-1-phenylethanamine]
16 | ≤ 10 µM | COc1ccc(CN[C@H](C)c2cccc(F)c2)cc1-c1ccc(F)cc1 [(1R)-N-((4′-fluoro-6-(methyloxy)-1,1′-biphenyl-3-yl)methyl)-1-(3-fluorophenyl)ethanamine]
17 | ≤ 10 µM | CCn1nc2ccc(-c3cc(CN[C@H](C)c4ccccc4)ccc3OC)cc2n1 [(1R)-N-((3-(2-ethyl-2H-1,2,3-benzotriazol-5-yl)-4-(methyloxy)phenyl)methyl)-1-phenylethanamine]
18 | ≤ 10 µM | COc1ccc(CN[C@H](C)c2ccccc2)cc1-c1ncccn1 [(1R)-N-((4-(methyloxy)-3-(2-pyrimidinyl)phenyl)methyl)-1-phenylethanamine]

More lines, now with the values behind:

Row | Structure (SMILES) | EC50
19 | COc1cccc([C@@H](C)NCc2ccc(OC)c(-c3ccc4ncccc4c3)c2)c1 [(1R)-1-(3-(methyloxy)phenyl)-N-((4-(methyloxy)-3-(6-quinolinyl)phenyl)methyl)ethanamine] | ≤ 10 µM
20 | COc1ccc(CN[C@H](C)c2cccc3ccccc23)cc1-c1ccc(OC(F)(F)F)cc1 [(1R)-N-((6-(methyloxy)-4′-((trifluoromethyl)oxy)-1,1′-biphenyl-3-yl)methyl)-1-(1-naphthalenyl)ethanamine] | ≤ 10 µM
21 | COc1ccc(CN[C@H](C)c2cccc3ccccc23)cc1-c1ccc2c(c1)nc(C(F)(F)F)n2C [(1R)-N-((4-(methyloxy)-3-(1-methyl-2-(trifluoromethyl)-1H-benzimidazol-5-yl)phenyl)methyl)-1-(1-naphthalenyl)ethanamine] | ≤ 10 µM
22 | COc1ccc(CN[C@H](C)c2cccc3ccccc23)cc1-c1ccc2ncccc2c1 [(1R)-N-((4-(methyloxy)-3-(6-quinolinyl)phenyl)methyl)-1-(1-naphthalenyl)ethanamine] | ≤ 10 µM
23 | COc1ccc([C@@H](C)NCc2cccc(-c3ccc(NC(=O)CCC(=O)O)nc3)c2)cc1 [4-((5-(3-((((1R)-1-(4-(methyloxy)phenyl)ethyl)amino)methyl)phenyl)-2-pyridinyl)amino)-4-oxobutanoic acid] | ≤ 10 µM
24 | Cc1ccc([C@@H](C)NCc2cccc(-c3ccc4c(c3)OCO4)c2)cc1 [(1R)-N-((3-(1,3-benzodioxol-5-yl)phenyl)methyl)-1-(4-methylphenyl)ethanamine] | ≤ 10 µM
25 | COc1cccc([C@@H](C)NCc2cccc(-c3ccccn3)c2)c1 [(1R)-1-(3-(methyloxy)phenyl)-N-((3-(2-pyridinyl)phenyl)methyl)ethanamine] | ≤ 10 µM
26 | COc1ccc(-c2cc(CN[C@H](C)c3ccc(C)cc3)ccc2F)cc1 [(1R)-N-((6-fluoro-4′-(methyloxy)-1,1′-biphenyl-3-yl)methyl)-1-(4-methylphenyl)ethanamine] | ≤ 10 µM
27 | COc1ccc(CN[C@H](C)c2cccc3ccccc23)cc1-c1ccc2ocnc2c1 [(1R)-N-((3-(1,3-benzoxazol-5-yl)-4-(methyloxy)phenyl)methyl)-1-(1-naphthalenyl)ethanamine] | ≤ 10 µM
28 | COc1cccc([C@@H](C)NCc2cccc(-c3cccc(NC(C)=O)c3)c2)c1 [N-(3′-((((1R)-1-(3-(methyloxy)phenyl)ethyl)amino)methyl)-1,1′-biphenyl-3-yl)acetamide] | ≤ 10 µM
29 | COc1ccc([C@@H](C)NCc2cccc(-c3ccc(OC)nn3)c2)cc1 [(1R)-1-(4-(methyloxy)phenyl)-N-((3-(6-(methyloxy)-3-pyridazinyl)phenyl)methyl)ethanamine] | ≤ 10 µM
30 | COc1ccc([C@@H](C)NCc2ccc(OC)c(-c3cccc(C#N)c3)c2)cc1 [2′-(methyloxy)-5′-((((1R)-1-(4-(methyloxy)phenyl)ethyl)amino)methyl)-1,1′-biphenyl-3-carbonitrile] | ≤ 10 µM
31 | COc1cccc([C@@H](C)NCc2ccc(OC)c(-c3ccc4c(c3)OC(F)(F)O4)c2)c1 [(1R)-N-((3-(2,2-difluoro-1,3-benzodioxol-5-yl)-4-(methyloxy)phenyl)methyl)-1-(3-(methyloxy)phenyl)ethanamine] | ≤ 10 µM
32 | C[C@@H](NCc1ccc(Cl)c(-c2cccnc2)c1)c1ccccc1 [Example 434, (1R)-N-((4-chloro-3-(3-pyridinyl)phenyl)methyl)-1-phenylethanamine] | ≤ 10 µM
33 | COc1ccc(CNC(C)c2cccc(Br)c2)cc1-c1ccc(C(F)(F)F)cc1 (centres unmarked) [1-(3-bromophenyl)-N-((6-(methyloxy)-4′-(trifluoromethyl)-1,1′-biphenyl-3-yl)methyl)ethanamine] | ≤ 10 µM
34 | COc1ccc(CN[C@H](C)c2ccccc2)cc1-c1cccnc1NCCCN1CCOCC1 [3-(2-(methyloxy)-5-((((1R)-1-phenylethyl)amino)methyl)phenyl)-N-(3-(4-morpholinyl)propyl)-2-pyridinamine] | ≤ 10 µM
35 | COc1cccc([C@@H](C)NCc2ccc(OC)c(-c3ccc4nsnc4c3)c2)c1 [(1R)-N-((3-(2,1,3-benzothiadiazol-5-yl)-4-(methyloxy)phenyl)methyl)-1-(3-(methyloxy)phenyl)ethanamine] | ≤ 10 µM
